The experiment addresses T1, Full length human CDC7 protein co-expressed with DBF4 (Homo sapiens, UniProt O00311).
T1 construct: Full length human CDC7 protein co-expressed with DBF4; purchased SignalChem (China)
The experiment in a line: CDC7 kinase biochemical assay (ADP-Glo, PDKtide substrate). As to conditions: 0.1 nM CDC7/DBF4, 1 uM ATP, 10 uM PDKtide, 4 h; read-out: CDC7 ADP-Glo PDKtide IC50. On the procedure:
CDC7 Kinase Biochemical Assay Protocol:
Full length human CDC7 protein co-expressed with DBF4 was purchased from SignalChem (China). CDC7 kinase activity was determined with PDKtide (SignalChem) as a substrate and by measuring ADP production using the ADP-Glo™ Kinase Assay kit (Promega) following the manufacturers instructions. The kinase reaction was performed using the following conditions: Buffer: 40 mM Tris pH 7.5, 20 mM MgCl2, 0.1 mg/ml BSA and 50 uM DTT. Final reaction mix contained 0.1 nM CDC7/DBF4, 1 uM ATP and 10 uM PDKtide. The kinase reaction time was 4 h. The ADP-Glo signal was measured using an EnVision plate reader (PerkinELmer).
Percent inhibition of CDC7 kinase activity was calculated based on the following formula: […]
SSample: the signal of compounds SHigh ctrl: the signal of high control (DMSO) SLow Ctrl: the signal of low control (positive control CDC7 inhibitor)
T1 sequence (O00311 whole entry): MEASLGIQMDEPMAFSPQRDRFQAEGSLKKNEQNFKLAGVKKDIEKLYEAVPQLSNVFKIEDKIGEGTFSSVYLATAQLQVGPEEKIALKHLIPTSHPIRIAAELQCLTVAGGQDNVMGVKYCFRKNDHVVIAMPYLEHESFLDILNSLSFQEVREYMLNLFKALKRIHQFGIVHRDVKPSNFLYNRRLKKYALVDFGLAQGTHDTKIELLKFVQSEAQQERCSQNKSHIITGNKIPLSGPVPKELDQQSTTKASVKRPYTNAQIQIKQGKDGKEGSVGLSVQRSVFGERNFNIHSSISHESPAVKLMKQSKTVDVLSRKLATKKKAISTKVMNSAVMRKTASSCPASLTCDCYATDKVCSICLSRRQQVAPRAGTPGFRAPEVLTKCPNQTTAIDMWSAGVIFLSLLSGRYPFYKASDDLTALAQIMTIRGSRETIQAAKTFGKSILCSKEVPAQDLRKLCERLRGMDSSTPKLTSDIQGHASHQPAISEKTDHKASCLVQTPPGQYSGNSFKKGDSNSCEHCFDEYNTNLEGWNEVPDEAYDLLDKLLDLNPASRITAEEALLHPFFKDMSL
T1 sequence (Q9UBU7 whole entry partner): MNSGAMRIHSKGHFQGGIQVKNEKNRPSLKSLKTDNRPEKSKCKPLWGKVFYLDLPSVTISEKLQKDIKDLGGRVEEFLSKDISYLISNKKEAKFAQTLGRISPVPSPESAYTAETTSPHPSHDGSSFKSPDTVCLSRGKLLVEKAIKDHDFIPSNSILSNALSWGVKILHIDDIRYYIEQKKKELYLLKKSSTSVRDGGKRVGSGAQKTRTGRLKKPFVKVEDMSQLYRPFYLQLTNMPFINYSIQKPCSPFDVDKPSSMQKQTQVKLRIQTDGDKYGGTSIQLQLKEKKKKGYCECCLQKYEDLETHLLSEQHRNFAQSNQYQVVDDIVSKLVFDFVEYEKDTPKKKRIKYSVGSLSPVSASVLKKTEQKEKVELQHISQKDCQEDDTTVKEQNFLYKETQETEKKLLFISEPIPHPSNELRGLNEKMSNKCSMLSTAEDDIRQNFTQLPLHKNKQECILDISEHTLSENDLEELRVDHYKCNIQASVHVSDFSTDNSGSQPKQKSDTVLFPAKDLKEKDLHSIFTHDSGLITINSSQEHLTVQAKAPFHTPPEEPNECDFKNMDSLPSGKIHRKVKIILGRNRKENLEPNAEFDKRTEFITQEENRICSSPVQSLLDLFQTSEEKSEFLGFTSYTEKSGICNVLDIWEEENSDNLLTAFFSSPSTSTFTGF
As for `Cc1cnn(C[C@H]2CNC(=O)c3sc(-c4cn[nH]c4)c4c3N2CCO4)c1` [Compound 42, (R)-6-((4-methyl-1H-pyrazol-1-yl)methyl)-2-(1H-pyrazol-4-yl)-4,5,7,8-tetrahydro-3-oxa-1-thia-5a,8-diazabenzo[cd]azulen-9(6H)-one], the IC50 is over 10 nM.
The figure for `CC1(C)NC(=O)c2sc(-c3ccnc4[nH]ncc34)c3c2N1CCO3` [Compound 8, 6,6-dimethyl-2-(1H-pyrazolo[3,4-b]pyridin-4-yl)-4,5,6,7-tetrahydro-8H-3-oxa-1-thia-5a,7-diazaacenaphthylen-8-one] is 1 to 10 nM; for `O=C1NC(C2CCCCO2)CN2CCCc3c(-c4cn[nH]c4)sc1c32` (single isomer, unassigned) [Compound 108] it is under 1 nM; for `CC1(C)NC(=O)c2sc(-c3ccncc3)c3c2N1CCO3` [Compound 2, 6,6-dimethyl-2-(pyridin-4-yl)-4,5,6,7-tetrahydro-8H-3-oxa-1-thia-5a,7-diazaacenaphthylen-8-one] it is under 1 nM.
`O=C1NC[C@H](C2CCOCC2)N2CCOc3c(-c4cn[nH]c4)sc1c32` (single isomer, unassigned) [Compound 28]: the half-inhibitory concentration (IC50) is over 10 nM.
In the case of `COC[C@@H]1CN(C)C(=O)c2sc(-c3cn[nH]c3)c3c2N1CCO3` [Compound 56, (S)-6-(methoxymethyl)-8-methyl-2-(1H-pyrazol-4-yl)-4,5,7,8-tetrahydro-3-oxa-1-thia-5a,8-diazabenzo[cd]azulen-9(6H)-one], the IC50 lay in the range of 1 to 10 nM.
On to `CNC[C@H]1CN2CCOc3c(-c4cn[nH]c4)sc(c32)C(=O)N1` [Compound 47, (S)-7-((methylamino)methyl)-2-(1H-pyrazol-4-yl)-4,5,7,8-tetrahydro-3-oxa-1-thia-5a,8-diazabenzo[cd]azulen-9(6H)-one], for which the concentration for half-maximal inhibition (IC50) is under 1 nM.
Take `CC1(C)NC(=O)c2sc(-c3c[nH]c4ncc(Cl)cc34)c3c2N1CCO3` [Compound 10, 2-(5-chloro-1H-pyrrolo[2,3-b]pyridin-3-yl)-6,6-dimethyl-4,5,6,7-tetrahydro-8H-3-oxa-1-thia-5a,7-diazaacenaphthylen-8-one]: the IC50 was 1 to 10 nM.
As to `COC[C@H]1CNC(=O)c2sc(-c3cn[nH]c3)c3c2N1CCC3` [Compound 88, (R)-6-(methoxymethyl)-2-(1H-pyrazol-4-yl)-4,5,7,8-tetrahydro-3H-1-thia-5a,8-diazabenzo[cd]azulen-9(6H)-one], the IC50 fell in the range of 1 to 10 nM.
`CNC[C@H]1CNC(=O)c2sc(-c3cn[nH]c3)c3c2N1CCO3` [Compound 37, (S)-6-((methylamino)methyl)-2-(1H-pyrazol-4-yl)-4,5,7,8-tetrahydro-3-oxa-1-thia-5a,8-diazabenzo[cd]azulen-9(6H)-one]: the IC50 is under 1 nM.
As to `CCC(=O)C[C@@H]1CNC(=O)c2sc(-c3cn[nH]c3)c3c2N1CCC3` [Compound 90, (9R)-9-(2-oxobutyl)-3-(1H-pyrazol-4-yl)-2-thia-8,11-diazatricyclo[6.4.1.0^4,13]trideca-1(13),3-dien-12-one], the concentration for half-maximal inhibition (IC50) was in the range of 1 to 10 nM.
For `CC1(C)NC(=O)c2sc(-c3ccncn3)c3c2N1CCCN3` [Compound 1, 5,5-dimethyl-1-(pyrimidin-4-yl)-4,5,6,7,8,9-hexahydro-3H-2-thia-4,5a,9-triazabenzo[cd]azulen-3-one], the half-inhibitory concentration (IC50) was under 1 nM.
Then `COC(=O)C[C@@H]1CNC(=O)c2sc(-c3cn[nH]c3)c3c2N1CCO3` [Compound 60, methyl (R)-2-(9-oxo-2-(1H-pyrazol-4-yl)-4,5,6,7,8,9-hexahydro-3-oxa-1-thia-5a,8-diazabenzo[cd]azulen-6-yl)acetate], with 1 to 10 nM; and `C[C@H]1CNC(=O)c2sc(-c3ccncc3)c3c2N1CCO3` [Compound 24, (S)-6-methyl-2-(pyridin-4-yl)-4,5,7,8-tetrahydro-3-oxa-1-thia-5a,8-diazabenzo[cd]azulen-9(6H)-one], with 1 to 10 nM; and `Cc1ccnn1C[C@H]1CNC(=O)c2sc(-c3cn[nH]c3)c3c2N1CCO3` [Compound 62, (R)-6-((5-methyl-1H-pyrazol-1-yl)methyl)-2-(1H-pyrazol-4-yl)-4,5,7,8-tetrahydro-3-oxa-1-thia-5a,8-diazabenzo[cd]azulen-9(6H)-one], with over 10 nM.
As to `CC(=O)NC[C@@H]1COc2c(-c3cn[nH]c3)sc3c2N1CCNC3=O` [Compound 57, N-[[(7R)-12-oxo-3-(1H-pyrazol-4-yl)-5-oxa-2-thia-8,11-diazatricyclo[6.4.1.0^4,13]trideca-1(13),3-dien-7-yl]methyl]acetamide], the half-maximal inhibitory concentration (IC50) is under 1 nM.
Regarding `O=C1N[C@@H](CO)CN2CCOc3c(-c4cn[nH]c4)sc1c32` [Compound 48, (R)-7-(hydroxymethyl)-2-(1H-pyrazol-4-yl)-4,5,7,8-tetrahydro-3-oxa-1-thia-5a,8-diazabenzo[cd]azulen-9(6H)-one], the IC50 was under 1 nM.
For the compound `C[C@@H]1CNC(=O)c2sc(-c3ccncc3)c3c2N1C(=O)CO3` [Compound 22, (R)-6-methyl-2-(pyridin-4-yl)-7,8-dihydro-3-oxa-1-thia-5a,8-diazabenzo[cd]azulene-5,9(4H,6H)-dione], the 50% inhibitory concentration (IC50) is 1 to 10 nM.
Consider `C[C@H]1CNC(=O)c2sc(-c3cn[nH]c3)c3c2N1CCO3` [Compound 25, (S)-6-methyl-2-(1H-pyrazol-4-yl)-4,5,7,8-tetrahydro-3-oxa-1-thia-5a,8-diazabenzo[cd]azulen-9(6H)-one], for which the IC50 is under 1 nM.
For `COC1CN(C[C@H]2CN3CC(F)(F)Cc4c(-c5cn[nH]c5)sc(c43)C(=O)N2)C1` [Compound 141, (S)-4,4-difluoro-7-((3-methoxyazetidin-1-yl)methyl)-2-(1H-pyrazol-4-yl)-4,5,7,8-tetrahydro-3H-1-thia-5a,8-diazabenzo[cd]azulen-9(6H)-one], the IC50 was 1 to 10 nM.
The figure for `O=C1NC(C2CC(F)(F)C2)CN2CC(F)Cc3c(-c4cn[nH]c4)sc1c32` (single isomer, unassigned) [Compound 128, 7-(3,3-difluorocyclobutyl)-4-fluoro-2-(1H-pyrazol-4-yl)-4,5,7,8-tetrahydro-3H-1-thia-5a,8-diazabenzo[cd]azulen-9(6H)-one] is 1 to 10 nM; for `COC(=O)[C@@H]1CN2C(=O)COc3c(-c4cn[nH]c4)sc(c32)C(=O)N1` [Compound 53, Methyl (S)-5,9-dioxo-2-(1H-pyrazol-4-yl)-4,5,6,7,8,9-hexahydro-3-oxa-1-thia-5a,8-diazabenzo[cd]azulene-7-carboxylate] it is 1 to 10 nM; for `O=C1NC(C2CCCCO2)CN2CCCc3c(-c4cn[nH]c4)sc1c32` (single isomer, unassigned) [Compound 110] it is under 1 nM.
On to `O=C1NC[C@@H](CO)N2CCOc3c(-c4cn[nH]c4)sc1c32` [Compound 34, (S)-6-(hydroxymethyl)-2-(1H-pyrazol-4-yl)-4,5,7,8-tetrahydro-3-oxa-1-thia-5a,8-diazabenzo[cd]azulen-9(6H)-one], for which the concentration for half-maximal inhibition (IC50) is under 1 nM.
Then `O=C1NC(C2CC(F)(F)C2)CN2CC(F)Cc3c(-c4cn[nH]c4)sc1c32` (single isomer, unassigned) [Compound 129, 7-(3,3-difluorocyclobutyl)-4-fluoro-2-(1H-pyrazol-4-yl)-4,5,7,8-tetrahydro-3H-1-thia-5a,8-diazabenzo[cd]azulen-9(6H)-one], with under 1 nM; and `CC1(C)NC(=O)c2sc(-c3ccnc(N)n3)c3c2N1CCO3` [Compound 11, 2-(2-aminopyrimidin-4-yl)-6,6-dimethyl-4,5,6,7-tetrahydro-8H-3-oxa-1-thia-5a,7-diazaacenaphthylen-8-one], with 1 to 10 nM; and `Cc1n[nH]cc1-c1sc2c3c1OCCN3C[C@H](C)NC2=O` [Compound 17], with 1 to 10 nM.
As for `O=C1N[C@@H](C2CCOCC2)CN2CCOc3c(-c4cn[nH]c4)sc1c32` [Compound 65, (S)-2-(1H-pyrazol-4-yl)-7-(tetrahydro-2H-pyran-4-yl)-4,5,7,8-tetrahydro-3-oxa-1-thia-5a,8-diazabenzo[cd]azulen-9(6H)-one], the IC50 was under 1 nM.
`Cc1cnn(C[C@H]2CNC(=O)c3sc(-c4cn[nH]c4)c4c3N2CCC4)c1` [Compound 95, (R)-6-((4-methyl-1H-pyrazol-1-yl)methyl)-2-(1H-pyrazol-4-yl)-4,5,7,8-tetrahydro-3H-1-thia-5a,8-diazabenzo[cd]azulen-9(6H)-one]: the IC50 is 1 to 10 nM.
For the compound `O=C1NC(C2CC(F)(F)C2)CN2CCOc3c(-c4cn[nH]c4)sc1c32` (single isomer, unassigned) [Compound 112, (S or R)-7-(3,3-difluorocyclobutyl)-2-(1H-pyrazol-4-yl)-4,5,7,8-tetrahydro-3-oxa-1-thia-5a,8-diazabenzo[cd]azulen-9(6H)-one], the 50% inhibitory concentration (IC50) is under 1 nM.
With `O=C1N[C@@H]([C@@H]2CCCCO2)CN2CC(F)(F)Cc3c(-c4cn[nH]c4)sc1c32` (single isomer, unassigned) [Compound 140], the IC50 was under 1 nM.
With `C[C@H]1CN2CCOc3c(-c4ccnc5[nH]ccc45)sc(c32)C(=O)N1` [Compound 18, (S)-7-methyl-2-(1H-pyrrolo[2,3-b]pyridin-4-yl)-4,5,7,8-tetrahydro-3-oxa-1-thia-5a,8-diazabenzo[cd]azulen-9(6H)-one], the IC50 is under 1 nM.
The figure for `O=C1N[C@H](C2CCC2)CN2CCOc3c(-c4ccncc4)sc1c32` [Compound 106, (R)-7-cyclobutyl-2-(pyridin-4-yl)-4,5,7,8-tetrahydro-3-oxa-1-thia-5a,8-diazabenzo[cd]azulen-9(6H)-one] is under 1 nM.

These data come from patent US20230101747A1 (Schrödinger, Inc., priority 2019, published 2023).
